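Growth conditions: 96-well plates. Treatment: test compound, 48 hours, 5 concentrations. Analysis: linear interpolation between bracketing concentrations; unreached endpoints set to highest concentration. The concentration for 50% growth inhibition is given as GI50.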 The source made the active and inactive calls. Cut-off read from the data, not from the text of the source: active = GI50 up to about 1.1 µM and inactive = higher.
Assays:
Test in all cases: NCI tumour cell line growth inhibition, 48 h
SW-620 = tested on: SW-620
HOP-62 = tested on: HOP-62
BT-549 = tested on: BT-549
COLO 205 = tested on: COLO 205
DU-145 = tested on: DU-145
A549 = tested on: A549
MDA-N = tested on: MDA-N
K562 = tested on: K562
SNB-75 = tested on: SNB-75
UACC-257 = tested on: UACC-257
MDA-MB-435 = tested on: MDA-MB-435
OVCAR-4 = tested on: OVCAR-4
ACHN = tested on: ACHN
M14 = tested on: M14
OVCAR-8 = tested on: OVCAR-8
SF-539 = tested on: SF-539
KM12 = tested on: KM12
NCI-H226 = tested on: NCI-H226
NCI-H23 = tested on: NCI-H23

Structure (SMILES) | GI50 (SW-620) | GI50 (HOP-62) | GI50 (BT-549) | GI50 (COLO 205) | GI50 (DU-145) | GI50 (A549) | GI50 (MDA-N) | GI50 (K562) | GI50 (SNB-75) | GI50 (UACC-257) | GI50 (MDA-MB-435) | GI50 (OVCAR-4) | GI50 (ACHN) | GI50 (M14) | GI50 (OVCAR-8) | GI50 (SF-539) | GI50 (KM12) | GI50 (NCI-H226) | GI50 (NCI-H23)
O=C(O)CSCC(=O)c1ccccc1 | > 100 µM (inactive) | > 100 µM (inactive) | > 100 µM (inactive) | > 100 µM (inactive) | > 100 µM (inactive) | > 100 µM (inactive) | > 100 µM (inactive) | > 100 µM (inactive) | > 100 µM (inactive) | > 100 µM (inactive) | > 100 µM (inactive) | > 100 µM (inactive) | > 100 µM (inactive) | > 100 µM (inactive) | > 100 µM (inactive) | > 100 µM (inactive) | > 100 µM (inactive) | > 100 µM (inactive) | > 100 µM (inactive)
OCCSCc1ccccc1 | > 100 µM (inactive) | > 100 µM (inactive) | > 100 µM (inactive) | > 100 µM (inactive) | > 100 µM (inactive) | > 100 µM (inactive) | > 100 µM (inactive) | > 100 µM (inactive) | > 100 µM (inactive) | > 100 µM (inactive) | > 100 µM (inactive) | > 100 µM (inactive) | > 100 µM (inactive) | > 100 µM (inactive) | > 100 µM (inactive) | > 100 µM (inactive) | > 100 µM (inactive) | > 100 µM (inactive) | > 100 µM (inactive)
CC(=O)Oc1ccc2c(c1)c1c(=O)oc(N(C)C)nc1n2Cc1ccccc1 | 81.1 µM (inactive) | > 59.3 µM (inactive) | 37.2 µM (inactive) | > 56.4 µM (inactive) | > 100 µM (inactive) | 48.4 µM (inactive) | > 71.4 µM (inactive) | 39.4 µM (inactive) | > 60.3 µM (inactive) | > 86.5 µM (inactive) | 46.2 µM (inactive) | 57.9 µM (inactive) | 45.3 µM (inactive) | > 78.7 µM (inactive) | 57.8 µM (inactive) | > 71.9 µM (inactive) | 56.6 µM (inactive) | > 80.4 µM (inactive) | 97.5 µM (inactive)
COCOC1/C=C/CCCCC(=O)C(C)C#CC1 (stereo unspecified) | 1.89 µM (inactive) | 17.5 µM (inactive) | 6.97 µM (inactive) | 2.51 µM (inactive) | 12.8 µM (inactive) | 12.9 µM (inactive) | 11.5 µM (inactive) | 2.97 µM (inactive) | 12.9 µM (inactive) | 5.65 µM (inactive) | 5.52 µM (inactive) | 10.2 µM (inactive) | 6.67 µM (inactive) | 3.72 µM (inactive) | 4.18 µM (inactive) | 5.7 µM (inactive) | 7.4 µM (inactive) | 17.2 µM (inactive) | 4.63 µM (inactive)
CCCCCCCCCCCCCCCCCCNc1ccn(C2OC(CO)C(OP(=O)(O)OCC(COP(=O)(O)OCC3OC(n4cc(F)c(NCCCCCCCCCCCCCCCCCC)nc4=O)CC3O)OC(=O)CCCCCCCCCCCCCCC)C2O)c(=O)n1 (stereo unspecified) | > 100 µM (inactive) | > 100 µM (inactive) | > 100 µM (inactive) | > 100 µM (inactive) | > 100 µM (inactive) | > 100 µM (inactive) | > 100 µM (inactive) | 3.01 µM (inactive) | > 100 µM (inactive) | > 100 µM (inactive) | > 100 µM (inactive) | > 100 µM (inactive) | > 100 µM (inactive) | > 100 µM (inactive) | > 100 µM (inactive) | > 100 µM (inactive) | > 100 µM (inactive) | > 100 µM (inactive) | > 100 µM (inactive)
CCOC(=O)Cc1nc2c(O)ncnc2n1C1OC(COC(C)=O)C(OC(C)=O)C1OC(C)=O (stereo unspecified) | > 100 µM (inactive) | > 100 µM (inactive) | > 100 µM (inactive) | > 100 µM (inactive) | > 100 µM (inactive) | > 100 µM (inactive) | > 100 µM (inactive) | > 100 µM (inactive) | > 100 µM (inactive) | > 100 µM (inactive) | > 100 µM (inactive) | > 100 µM (inactive) | > 100 µM (inactive) | > 100 µM (inactive) | > 100 µM (inactive) | > 100 µM (inactive) | > 100 µM (inactive) | > 100 µM (inactive) | > 100 µM (inactive)
O=C(c1cccc(C(=O)c2ccc3c4c(cccc24)C(=O)N(c2ccccc2)C3=O)c1)c1ccc2c3c(cccc13)C(=O)N(c1ccccc1)C2=O | > 100 µM (inactive) | 88.7 µM (inactive) | > 100 µM (inactive) | > 100 µM (inactive) | > 100 µM (inactive) | > 100 µM (inactive) | > 100 µM (inactive) | > 100 µM (inactive) | > 100 µM (inactive) | 72.8 µM (inactive) | > 100 µM (inactive) | > 100 µM (inactive) | > 100 µM (inactive) | > 100 µM (inactive) | > 100 µM (inactive) | > 100 µM (inactive) | > 100 µM (inactive) | > 100 µM (inactive) | > 100 µM (inactive)
CSc1c(C)[n+]([O-])c2cc(Cl)c(Cl)cc2[n+]1[O-] | 16.8 µM (inactive) | 33.3 µM (inactive) | 18.3 µM (inactive) | 15.5 µM (inactive) | 16.9 µM (inactive) | > 100 µM (inactive) | 16 µM (inactive) | 3.32 µM (inactive) | > 47.1 µM (inactive) | 17.9 µM (inactive) | 18.5 µM (inactive) | 16.4 µM (inactive) | 16.8 µM (inactive) | 19.8 µM (inactive) | 16.6 µM (inactive) | 44.8 µM (inactive) | 31.4 µM (inactive) | 13.1 µM (inactive) | 16.2 µM (inactive)
COc1ccc(/N=N/C(=N\c2ccccc2)c2ccc(N(CCC#N)CCC#N)cc2)cc1 | > 100 µM (inactive) | 89.5 µM (inactive) | 47.6 µM (inactive) | 14.1 µM (inactive) | 76.9 µM (inactive) | 49.2 µM (inactive) | 85.9 µM (inactive) | 31.3 µM (inactive) | 38.3 µM (inactive) | 23.8 µM (inactive) | 56.4 µM (inactive) | 45.3 µM (inactive) | > 100 µM (inactive) | 69.8 µM (inactive) | 45.3 µM (inactive) | 28 µM (inactive) | 26 µM (inactive) | > 100 µM (inactive) | 51.4 µM (inactive)
CCCC(O)c1cn(C(NC(=O)c2ccccc2)P(=O)(OCC)OCC)nn1 (stereo unspecified) | > 100 µM (inactive) | > 100 µM (inactive) | > 100 µM (inactive) | > 100 µM (inactive) | > 100 µM (inactive) | > 100 µM (inactive) | > 100 µM (inactive) | > 100 µM (inactive) | > 100 µM (inactive) | > 100 µM (inactive) | > 100 µM (inactive) | > 100 µM (inactive) | > 100 µM (inactive) | > 100 µM (inactive) | > 100 µM (inactive) | > 100 µM (inactive) | > 100 µM (inactive) | > 100 µM (inactive) | > 100 µM (inactive)
CC(=O)C(=Cc1ccc(C=C(C(C)=O)C(C)=O)cc1)C(C)=O | 0.611 µM (active) | 2.08 µM (inactive) | 2.05 µM (inactive) | 1.7 µM (inactive) | 3.81 µM (inactive) | 2.93 µM (inactive) | 2.22 µM (inactive) | 0.286 µM (active) | 1.78 µM (inactive) | 1.92 µM (inactive) | 1.63 µM (inactive) | 1.9 µM (inactive) | 1.76 µM (inactive) | 1.34 µM (inactive) | 2.05 µM (inactive) | 2.1 µM (inactive) | 0.12 µM (active) | 3.23 µM (inactive) | 1.93 µM (inactive)
CC(C)OC(=S)Nc1ccc(Cl)c(/C=N/OC(C)(C)C)c1 | 16.6 µM (inactive) | 19.5 µM (inactive) | 18.5 µM (inactive) | 17.1 µM (inactive) | 13 µM (inactive) | 16.9 µM (inactive) | 22.9 µM (inactive) | 20 µM (inactive) | 23.5 µM (inactive) | 18.2 µM (inactive) | 18 µM (inactive) | 18.1 µM (inactive) | 15.1 µM (inactive) | 19.9 µM (inactive) | 12.3 µM (inactive) | 15.5 µM (inactive) | 12.5 µM (inactive) | 17.9 µM (inactive) | 18.5 µM (inactive)
C=C(C(=O)O[C@H]1C(=O)C2=C(C)CCC3C(=C)C(=O)O[C@@H]3C2[C@]1(C)O)C1CC[C@]2(C)CCCC(=C)[C@H]2C1 (stereo partly specified) | 7.46 µM (inactive) | 8.32 µM (inactive) | 5.04 µM (inactive) | 8.77 µM (inactive) | 4.72 µM (inactive) | 8.89 µM (inactive) | 2.71 µM (inactive) | 6.11 µM (inactive) | 0.327 µM (active) | 4.25 µM (inactive) | 3.35 µM (inactive) | 5.36 µM (inactive) | 4.58 µM (inactive) | 7.62 µM (inactive) | 4.36 µM (inactive) | 4.1 µM (inactive) | 6.85 µM (inactive) | 17.1 µM (inactive) | 7.35 µM (inactive)
Cn1cnc2c(OCC3CCCCC3)nc(N)nc21 | > 100 µM (inactive) | > 100 µM (inactive) | > 100 µM (inactive) | > 100 µM (inactive) | > 100 µM (inactive) | > 100 µM (inactive) | > 100 µM (inactive) | > 100 µM (inactive) | 36.3 µM (inactive) | > 100 µM (inactive) | > 100 µM (inactive) | > 100 µM (inactive) | < 0.01 µM (active) | > 100 µM (inactive) | > 100 µM (inactive) | > 100 µM (inactive) | > 100 µM (inactive) | 44.1 µM (inactive) | > 100 µM (inactive)
